Read-outs that look alike come from different tables or passages of the source. Square brackets hold non-standard residues; d marks the D form. Peptide text beside a SMILES is read from it. NMeThr(4R-Me,4-(CH2)6NHAc) = CN[C@H](C(=O)O)[C@H](O)[C@H](C)CCCCCCNC(C)=O; NMeL = CN[C@@H](CC(C)C)C(=O)O; NMeV = CN[C@H](C(=O)O)C(C)C; dNMeA = CN[C@H](C)C(=O)O; Abu = CC[C@H](N)C(=O)O
What was measured:
[1] = target: T1, recombinant Cyp B (PPIB) (Homo sapiens, UniProt P23284); assay: Cyclophilin isomerase assay, Cyp B; type: biochemical
T1 construct: purchased Cedarlane Laboratories CLENZ313
T1 sequence (P23284 34-216): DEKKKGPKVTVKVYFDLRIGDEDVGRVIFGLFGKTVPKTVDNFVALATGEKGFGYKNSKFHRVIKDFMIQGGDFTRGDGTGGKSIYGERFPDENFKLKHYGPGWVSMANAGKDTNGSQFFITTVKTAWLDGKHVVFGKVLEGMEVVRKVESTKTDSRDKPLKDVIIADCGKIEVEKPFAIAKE
Description: (§1) Cyclophilin isomerase activity was measured with an assay described by [Kofron et al. (1991)] with adaptations to 96-well plates. In this assay cyclophilins catalyze cis-to-trans isomerization of a proline peptide bond in a nitroanalide-coupled peptide substrate followed by cleavage of the trans-conformer peptide by α-chymotrypsin, release of the p-nitroaniline chromogen, and quantitation of p-nitroaniline by absorbance at 410 nm. All solutions were pre-equilibrated, and all assays were conducted at 4°C. Plates were preloaded with 5 µl peptide solution consisting of N-succinyl-alanine-alanine-proline-phenylalanine-p-nitroanilide (S7388; Sigma-Aldrich) and 400 mM lithium chloride (310468; Sigma-Aldrich) in anhydrous trifluoroethanol (T63002; Sigma-Aldrich). […] Absorbance measurements with a BMG Polarstar Galaxy plate reader were begun immediately and made at 6-second intervals for 6 minutes. Reaction curves were represented by increases in optical density 410 nm as a function of reaction time. For Ki determinations, initial reaction velocities were obtained from the reaction curves and plotted relative to substrate concentration, and the curves were fitted to the enzyme competitive inhibition model (GraphPad Prism) to derive Ki, maximum velocity (Vmax), and Michaelis constant values. […]

[2] = target: T2, recombinant cyclophilin G (PPIG) (Homo sapiens, UniProt Q13427); assay: Cyclophilin isomerase assay, cyclophilin G; type: biochemical
T2 construct: purchased Cedarlane Laboratories CLENZ463
T2 sequence (Q13427 whole entry): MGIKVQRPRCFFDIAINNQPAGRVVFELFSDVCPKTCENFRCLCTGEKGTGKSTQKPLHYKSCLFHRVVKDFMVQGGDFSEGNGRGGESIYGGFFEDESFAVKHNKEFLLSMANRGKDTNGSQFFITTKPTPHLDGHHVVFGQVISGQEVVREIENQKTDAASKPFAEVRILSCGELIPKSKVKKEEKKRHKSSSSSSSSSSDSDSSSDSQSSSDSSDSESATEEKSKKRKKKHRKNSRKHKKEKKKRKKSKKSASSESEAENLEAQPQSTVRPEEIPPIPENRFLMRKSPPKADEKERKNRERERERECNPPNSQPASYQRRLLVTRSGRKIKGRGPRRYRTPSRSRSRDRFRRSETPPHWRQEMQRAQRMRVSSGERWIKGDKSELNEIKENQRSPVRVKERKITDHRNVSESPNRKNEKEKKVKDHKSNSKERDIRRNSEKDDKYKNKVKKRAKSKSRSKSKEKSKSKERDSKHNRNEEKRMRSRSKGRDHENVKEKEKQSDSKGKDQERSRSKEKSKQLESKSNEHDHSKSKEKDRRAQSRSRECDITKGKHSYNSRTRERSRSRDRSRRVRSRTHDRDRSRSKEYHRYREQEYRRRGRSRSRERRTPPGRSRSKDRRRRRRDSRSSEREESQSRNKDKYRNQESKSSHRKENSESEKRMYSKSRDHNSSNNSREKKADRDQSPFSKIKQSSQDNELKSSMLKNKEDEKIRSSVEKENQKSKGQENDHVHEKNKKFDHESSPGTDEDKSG
Description: as §1

[3] = target: cyclophilins A, B, D, and G; assay: Cyclophilin isomerase assay, all isoforms tested; type: biochemical
Description: Cyclophilin isomerase activity was measured with an assay described by [Kofron et al. (1991)] with adaptations to 96-well plates. In this assay cyclophilins catalyze cis-to-trans isomerization of a proline peptide bond in a nitroanalide-coupled peptide substrate followed by cleavage of the trans-conformer peptide by α-chymotrypsin, release of the p-nitroaniline chromogen, and quantitation of p-nitroaniline by absorbance at 410 nm. All solutions were pre-equilibrated, and all assays were conducted at 4°C. Plates were preloaded with 5 µl peptide solution consisting of N-succinyl-alanine-alanine-proline-phenylalanine-p-nitroanilide (S7388; Sigma-Aldrich) and 400 mM lithium chloride (310468; Sigma-Aldrich) in anhydrous trifluoroethanol (T63002; Sigma-Aldrich). […] Cis-peptide represented 55% of the peptide isomers, based on initial reaction bursts, and therefore peptide concentration was corrected to 55% of input in subsequent calculations. […] Absorbance measurements with a BMG Polarstar Galaxy plate reader were begun immediately and made at 6-second intervals for 6 minutes. Reaction curves were represented by increases in optical density 410 nm as a function of reaction time. […]

[4] = system: IL-2 promoter luciferase reporter, Jurkat cells; assay: IL-2 luciferase reporter assay in Jurkat cells; type: cell-based, human; settings: for IC50: 18 hours, read-out: IL-2–Luc IC50; for IL-2–Luc IC50 Fold Difference: CRV431 vs CsA
Description: The luciferase reporter assays employed Jurkat cells stably transfected with gene constructs consisting of a luciferase gene plus human nuclear factor of activated T cells (NFAT) or interleukin-2 (IL-2) promoter elements (J1621 and J1651; Promega). The NFAT construct contained a DNA binding site only for NFAT, whereas the IL-2 construct contained binding sites for NFAT, nuclear factor κ-light-chain-enhancer of activated B cells, and activating protein-1 transcription factors. Cells were cultured in 96-well plates at 100,000 cells/well in RPMI 1640 medium (11875-093; Thermo Fisher) supplemented with 5% FBS (12483020; Thermo Fisher). Cells were activated either by precoating high protein-binding plates with 3 µg/ml anti-CD3 (UCHT clone) and anti-CD28 (CD28.2 clone) (BioLegend LEAF antibodies) or by adding phorbol myristate acetate (PMA; P8139; Sigma-Aldrich) to 15 ng/ml and A23187 ionophore (C7522; Sigma-Aldrich) to 0.75 µM. […] Cells were harvested after 18 hours of incubation, and luciferase was quantified with Promega Bio-Glo reagent (G7940; Promega) and measurement with a luminescence plate reader. Data were normalized to DMSO controls (100% stimulation) and to wells without antibody or PMA plus A23187 stimulation.

[5] = system: CCl4-induced liver fibrosis in C57BL/6 mice; assay: Carbon tetrachloride mouse model of liver fibrosis; type: in vivo; settings: 50 mg/kg per day oral for 6 weeks, vs vehicle
Description: Carbon tetrachloride (CCl4)–induced liver fibrosis was conducted in C57BL/6J male mice starting at 7 weeks of age. Mice were injected intraperitoneally twice per week with 0.5–0.75 ml/kg CCL4 (289116; Sigma-Aldrich) and corn oil (0.05 ml total dose per mouse) for 6 weeks. CRV431, obeticholic acid (OCA, HY-12222; MedChemExpress), and vehicle were administered by daily oral gavage for the entire duration of the study. CRV431 and OCA were dissolved in a self-microemulsifying drug vehicle ([Trepanier et al., 2018]), and then diluted with PBS. CRV431 was administered at 50 mg/kg per day, and OCA was administered at 10 mg/kg per day.
Blood and livers were collected at the end of the NASH and CCl4 studies. In some studies, serum or plasma was isolated from freshly-collected blood, whereas in other studies blood was frozen for later analysis of CRV431 concentration. Livers were immersion-fixed in zinc-formalin and paraffin-embedded for histologic processing. Liver sections were stained with hematoxylin and eosin for assessment of inflammation, ballooning, and steatosis, and with sirius red for assessment of collagen I and III (fibrosis). Sirius red staining was quantified by blinded analysis in one section per liver using ImageJ software. […]

[6] = target: P-gp (Homo sapiens, UniProt P08183)
P-gp, sequence (P08183 whole entry): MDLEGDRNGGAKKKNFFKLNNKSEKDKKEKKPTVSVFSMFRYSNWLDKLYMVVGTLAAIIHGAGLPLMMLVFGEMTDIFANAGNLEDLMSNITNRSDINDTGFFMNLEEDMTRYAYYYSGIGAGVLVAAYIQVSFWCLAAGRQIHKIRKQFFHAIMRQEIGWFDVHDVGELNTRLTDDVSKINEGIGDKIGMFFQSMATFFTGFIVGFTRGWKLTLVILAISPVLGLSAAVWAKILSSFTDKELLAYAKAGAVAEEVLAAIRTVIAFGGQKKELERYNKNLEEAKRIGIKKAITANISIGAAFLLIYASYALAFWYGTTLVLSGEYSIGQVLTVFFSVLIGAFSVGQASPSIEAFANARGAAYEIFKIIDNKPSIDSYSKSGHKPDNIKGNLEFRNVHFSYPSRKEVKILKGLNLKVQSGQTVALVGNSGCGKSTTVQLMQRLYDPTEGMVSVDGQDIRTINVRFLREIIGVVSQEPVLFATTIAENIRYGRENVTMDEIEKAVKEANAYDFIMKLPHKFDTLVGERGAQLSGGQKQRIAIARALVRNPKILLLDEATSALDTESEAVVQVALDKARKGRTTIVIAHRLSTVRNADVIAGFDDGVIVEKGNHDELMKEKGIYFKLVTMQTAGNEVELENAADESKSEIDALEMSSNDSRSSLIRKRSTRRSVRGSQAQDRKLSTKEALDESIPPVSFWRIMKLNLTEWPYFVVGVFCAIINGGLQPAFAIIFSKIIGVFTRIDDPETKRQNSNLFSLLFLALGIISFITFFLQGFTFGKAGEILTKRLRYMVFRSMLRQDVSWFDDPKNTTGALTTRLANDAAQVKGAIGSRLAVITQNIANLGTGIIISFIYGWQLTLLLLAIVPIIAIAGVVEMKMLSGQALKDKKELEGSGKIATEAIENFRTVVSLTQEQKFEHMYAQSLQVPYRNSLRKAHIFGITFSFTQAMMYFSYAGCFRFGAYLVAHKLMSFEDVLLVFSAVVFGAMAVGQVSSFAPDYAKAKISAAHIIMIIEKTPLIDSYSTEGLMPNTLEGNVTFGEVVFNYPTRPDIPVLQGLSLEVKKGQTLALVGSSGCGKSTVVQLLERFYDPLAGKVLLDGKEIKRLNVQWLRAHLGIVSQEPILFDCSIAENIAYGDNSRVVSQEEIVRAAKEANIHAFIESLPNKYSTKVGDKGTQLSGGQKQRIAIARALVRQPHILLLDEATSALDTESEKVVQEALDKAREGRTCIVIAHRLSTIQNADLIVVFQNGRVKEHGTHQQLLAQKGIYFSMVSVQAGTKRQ
Description: (§2) Briefly, PGP and breast cancer resistance protein inhibition was assessed by measuring the bidirectional transport of substrates across cell monolayers in transwell culture plates. Efflux ratios were represented as (apical-to-basal flux)/(basal-to-apical flux), and efflux ratios were plotted relative to CRV431 concentration to derive IC50 values. Bile salt export pump (BSEP) and multidrug resistance protein (MRP)1 inhibition was assessed by measuring substrate accumulation in membrane vesicles prepared from insect Sf9 cells and recombinantly expressing BSEP and MRP2 (Genomembrane). Inhibition of all other transporters was assessed by measuring substrate accumulation in cells recombinantly expressing the transporter. Known inhibitors of each transporter were used as positive controls for the assays. […] Specific, ATP-dependent uptake was determined by subtracting uptake in negative control vesicles and cells not expressing the transporters, and secondly by subtracting uptake in the absence of ATP in the assays. Specific, ATP-dependent uptake was plotted as a function of CRV431 concentrations and fitted to nonlinear regressions to obtain IC50 values.

[7] = target: BSEP (Homo sapiens, UniProt O95342)
BSEP, sequence (O95342 whole entry): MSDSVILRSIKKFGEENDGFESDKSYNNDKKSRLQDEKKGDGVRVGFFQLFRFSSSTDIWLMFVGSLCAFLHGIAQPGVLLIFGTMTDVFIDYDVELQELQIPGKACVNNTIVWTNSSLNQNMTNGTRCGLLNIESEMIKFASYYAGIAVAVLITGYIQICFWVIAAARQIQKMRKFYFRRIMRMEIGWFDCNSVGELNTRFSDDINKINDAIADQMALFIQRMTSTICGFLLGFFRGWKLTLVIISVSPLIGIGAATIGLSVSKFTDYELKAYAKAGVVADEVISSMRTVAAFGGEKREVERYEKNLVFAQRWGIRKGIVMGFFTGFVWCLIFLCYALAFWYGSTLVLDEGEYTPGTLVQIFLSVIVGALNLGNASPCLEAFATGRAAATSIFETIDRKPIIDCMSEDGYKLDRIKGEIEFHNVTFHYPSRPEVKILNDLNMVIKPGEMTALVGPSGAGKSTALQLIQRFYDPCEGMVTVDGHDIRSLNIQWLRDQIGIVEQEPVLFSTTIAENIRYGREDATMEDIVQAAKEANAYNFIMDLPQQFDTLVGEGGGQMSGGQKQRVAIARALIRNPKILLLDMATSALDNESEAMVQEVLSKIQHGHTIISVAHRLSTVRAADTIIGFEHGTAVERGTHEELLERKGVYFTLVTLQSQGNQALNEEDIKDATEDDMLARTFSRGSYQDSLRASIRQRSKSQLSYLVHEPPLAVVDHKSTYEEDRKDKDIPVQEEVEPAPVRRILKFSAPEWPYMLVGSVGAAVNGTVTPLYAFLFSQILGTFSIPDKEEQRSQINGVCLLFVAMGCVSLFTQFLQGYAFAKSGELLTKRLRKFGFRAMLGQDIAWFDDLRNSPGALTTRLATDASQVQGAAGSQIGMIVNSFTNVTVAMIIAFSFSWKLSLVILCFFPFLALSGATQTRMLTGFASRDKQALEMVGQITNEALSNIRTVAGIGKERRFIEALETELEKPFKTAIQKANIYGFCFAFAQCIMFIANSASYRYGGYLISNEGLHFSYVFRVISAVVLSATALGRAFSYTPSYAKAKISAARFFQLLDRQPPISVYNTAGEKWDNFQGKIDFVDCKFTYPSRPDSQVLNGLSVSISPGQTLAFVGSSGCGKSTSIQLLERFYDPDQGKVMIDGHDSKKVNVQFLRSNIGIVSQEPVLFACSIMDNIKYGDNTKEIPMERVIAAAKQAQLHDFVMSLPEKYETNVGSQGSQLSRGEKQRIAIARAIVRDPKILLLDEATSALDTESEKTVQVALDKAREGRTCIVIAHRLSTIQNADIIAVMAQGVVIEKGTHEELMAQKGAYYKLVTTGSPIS
Description: (§3) Bile salt export pump (BSEP) and multidrug resistance protein (MRP)1 inhibition was assessed by measuring substrate accumulation in membrane vesicles prepared from insect Sf9 cells and recombinantly expressing BSEP and MRP2 (Genomembrane). Inhibition of all other transporters was assessed by measuring substrate accumulation in cells recombinantly expressing the transporter. Known inhibitors of each transporter were used as positive controls for the assays. […] Specific, ATP-dependent uptake was determined by subtracting uptake in negative control vesicles and cells not expressing the transporters, and secondly by subtracting uptake in the absence of ATP in the assays. Specific, ATP-dependent uptake was plotted as a function of CRV431 concentrations and fitted to nonlinear regressions to obtain IC50 values.

[8] = target: MRP2 (Homo sapiens, UniProt Q92887)
Description: as §3

[9] = target: OATP1B3 (Homo sapiens, UniProt Q9NPD5)
OATP1B3, sequence (Q9NPD5 whole entry): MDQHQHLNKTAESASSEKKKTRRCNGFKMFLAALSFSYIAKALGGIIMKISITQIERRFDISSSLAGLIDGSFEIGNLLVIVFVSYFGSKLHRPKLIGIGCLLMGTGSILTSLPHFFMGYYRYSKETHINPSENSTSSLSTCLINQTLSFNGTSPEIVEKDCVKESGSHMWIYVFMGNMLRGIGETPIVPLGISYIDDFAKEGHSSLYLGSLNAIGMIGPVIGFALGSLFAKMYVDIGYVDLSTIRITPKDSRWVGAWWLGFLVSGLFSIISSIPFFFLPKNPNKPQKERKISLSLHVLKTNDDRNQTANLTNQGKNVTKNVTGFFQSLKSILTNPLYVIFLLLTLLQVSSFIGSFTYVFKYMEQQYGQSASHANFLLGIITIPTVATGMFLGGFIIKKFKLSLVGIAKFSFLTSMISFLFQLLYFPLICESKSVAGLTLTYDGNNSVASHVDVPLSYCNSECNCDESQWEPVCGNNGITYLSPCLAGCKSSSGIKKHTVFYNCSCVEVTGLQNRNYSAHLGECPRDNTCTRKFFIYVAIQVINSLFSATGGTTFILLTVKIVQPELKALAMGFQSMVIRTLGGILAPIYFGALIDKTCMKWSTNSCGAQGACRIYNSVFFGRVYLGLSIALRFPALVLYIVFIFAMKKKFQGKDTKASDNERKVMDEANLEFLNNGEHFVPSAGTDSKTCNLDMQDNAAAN
Description: as §2

[10] = rat, in vivo, po
Description: Male and female Sprague–Dawley rats and male C57BL/6 mice from the carbon tetrachloride and NASH studies were used to evaluate CRV431 pharmacokinetics and distribution. […] Terminal whole blood and livers were collected and frozen until drug extraction. Liver samples were homogenized in PBS or 1% formic acid (0.1 g–0.4 g liver sample per ml solvent) with bead-based homogenizers (TissueLyser or Beadruptor). […] Sample and standard compounds were extracted from blood and liver homogenates using a zinc sulfate/methanol precipitation method and quantified by liquid chromatography–electrospray ionization–mass spectrometry, as previously described ([Trepanier et al., 2018]). Liver CRV431 concentrations were normalized to the masses of the liver samples.
CRV431 pharmacokinetics in rats. […] Whole–blood concentrations of the two compounds were determined at the indicated time points. […] Means and S.D. shown.

For `CC[C@@H]1NC(=O)[C@H]([C@H](O)[C@H](C)CCCCCCNC(C)=O)N(C)C(=O)[C@H](C(C)C)N(C)C(=O)[C@H](CC(C)C)N(C)C(=O)[C@H](CC(C)C)N(C)C(=O)[C@@H](C)NC(=O)[C@H](C)NC(=O)[C@H](CC(C)C)N(C)C(=O)[C@H](C(C)C)NC(=O)[C@H](CC(C)C)N(C)C(=O)[C@@H](C)N(C)C1=O` [CRV431] (cyclo(A[dA][NMeL][NMeL][NMeV][NMeThr(4R-Me,4-(CH2)6NHAc)][Abu][dNMeA][NMeL]V[NMeL])), the “IC50 Fold Difference” value ([1]; CsA IC50 vs CRV431 IC50, PPIB) was 3.7, the IC50 ([1]; PPIB (Cyp B), one peptide substrate concentration) was 3.1 nM and the “IC50 Fold Difference” value ([2]; CsA IC50 vs CRV431 IC50, PPIG) was 3.8. It also gave an IC50 ([2]; PPIG (Cyp G), one peptide substrate concentration) of 7.3 nM, an IC50 ([3]; range over Cyp A, G, read-out: IC50 values, all cyclophilin isoforms) of 2.5 to 7.3 nM and an IC50 ([3]; range over isoforms A, G (abstract), read-out: Inhibitory constant or IC50 values) of 1 to 7 nM. For the same molecule, the IC50 ([4]; CD3 + CD28 antibodies stimulation) was 312 nM, the “IL-2–Luc IC50 Fold Difference” value ([4]; CD3 + CD28 antibodies) was 34.6 and the “IL-2–Luc IC50 Fold Difference” value ([4]; PMA + A23187) was 36.9. The IC50 ([4]; PMA + A23187 stimulation) was 300 nM, the “times less potent than CsA on Jurkat–IL-2 cells” value ([4]; ratio of CRV431 and CsA IC50) was “approximately 35 times” and the “lowering of the amount of sirius red staining” value [5] was 43%. The IC50 [6] was over 50000 nM, the IC50 [7] was 1420 nM and the IC50 [8] was 20700 nM. The IC50 [9] was 600 nM and the “half-life (in words)” value [10] was “relatively long CRV431 half-life that exceeded that of CsA”.

— paper PMC6815936, “A Pan-Cyclophilin Inhibitor, CRV431, Decreases Fibrosis and Tumor Development in Chronic Liver Disease Models” (The Journal of Pharmacology and Experimental Therapeutics, 2019)
